target: T1, Full-length human PRMT3 (Homo sapiens, UniProt O60678); assay: PRMT3 biochemical assay (3H-SAM Flashplate, peptide substrate)
T1 construct: GST-tagged PRMT3; made in house; host or cells: E. coli BL21(DE3) Gold (pGEX-KG)
Summary of the method: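 Methylation of a biotinylated peptide (330 nM) by 0.5 nM GST-PRMT3 using 3H-SAM 100 nM with unlabelled SAM 1.8 uM, 20 mM Bicine pH 7.6, 2% DMSO, after 30 min enzyme–compound preincubation. Scintillation counts on streptavidin Flashplates normalised to 1 mM SAH and DMSO controls; curve fits with floating or fixed Hill slope.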

T1 sequence (O60678 with tags, fused parts or gaps): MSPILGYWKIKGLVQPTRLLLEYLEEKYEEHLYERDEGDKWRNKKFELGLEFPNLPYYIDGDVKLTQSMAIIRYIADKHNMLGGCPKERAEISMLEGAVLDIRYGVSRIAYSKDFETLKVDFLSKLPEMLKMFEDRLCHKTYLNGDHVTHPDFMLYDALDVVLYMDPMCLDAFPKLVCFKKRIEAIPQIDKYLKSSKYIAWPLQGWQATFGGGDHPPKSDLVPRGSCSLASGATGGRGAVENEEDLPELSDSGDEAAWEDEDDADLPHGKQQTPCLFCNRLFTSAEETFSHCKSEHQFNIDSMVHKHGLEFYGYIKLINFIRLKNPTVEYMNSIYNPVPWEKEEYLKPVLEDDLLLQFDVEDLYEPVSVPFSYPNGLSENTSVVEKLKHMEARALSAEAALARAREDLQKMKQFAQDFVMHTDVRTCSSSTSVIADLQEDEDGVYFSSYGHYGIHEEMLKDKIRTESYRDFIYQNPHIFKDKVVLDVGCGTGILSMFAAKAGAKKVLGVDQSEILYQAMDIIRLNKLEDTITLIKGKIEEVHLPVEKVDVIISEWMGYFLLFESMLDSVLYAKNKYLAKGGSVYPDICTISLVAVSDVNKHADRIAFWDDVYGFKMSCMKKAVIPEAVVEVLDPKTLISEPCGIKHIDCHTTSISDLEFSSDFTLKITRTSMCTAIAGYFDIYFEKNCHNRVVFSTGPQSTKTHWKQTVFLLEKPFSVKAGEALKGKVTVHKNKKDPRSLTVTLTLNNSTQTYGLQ

Question: With `CCNC(=O)c1cccc(-c2n[nH]cc2CN(C)CCNC)c1` [Compound 43] as the molecule, how does the IC50 read?
Answer: Its IC50 is over 10 µM.

Question: With `CNCCN(C)Cc1cn[nH]c1-c1ccc(C#N)cc1` [Compound 17] as the molecule, how does the IC50 read?
Answer: The IC50 was 1.01 to 3 µM.

Question: `CNCCN(C)Cc1cn[nH]c1-c1cc(F)cc(F)c1` [Compound 18] was tested. Which IC50 did it give?
Answer: The IC50 was 3.01 to 10 µM.

Question: `CNCCN(C)Cc1cn(C(C)C)nc1-c1ccc(F)cc1` [Compound 15] was tested. Which IC50 did it give?
Answer: The IC50 was over 10 µM.

Question: Which IC50 does the source give for `CNCCN(C)Cc1cn(C2CC2)nc1-c1ccc(F)cc1` [Compound 13] here?
Answer: The IC50 was over 10 µM.

Question: `CNCCN(C)Cc1c[nH]nc1-c1cccc(C#N)c1` [Compound 22] was tested. Which IC50 did it give?
Answer: Its IC50 is over 10 µM.

Question: For `CNCCN(C)Cc1c[nH]nc1-c1ccc(CO)cc1` [Compound 28], which IC50 is on record?
Answer: The IC50 was 0.101 to 1 µM.

Question: Which IC50 does the source give for `CNCCN(C)Cc1c[nH]nc1-c1ccc(O)cc1` [Compound 27] here?
Answer: The IC50 was over 10 µM.

Question: With `CNCCN(C)Cc1cn(CCCC(O)CO)nc1-c1ccc(F)cc1` (centres unmarked) [Compound 30] as the molecule, how does the IC50 read?
Answer: Its IC50 is over 10 µM.

Question: With `CNCCN(C)Cc1c[nH]nc1-c1ccccc1C(F)(F)F` [Compound 38] as the molecule, how does the IC50 read?
Answer: Its IC50 is over 10 µM.

Question: `CNCCN(C)Cc1cnn(C(C)C)c1-c1ccc(F)cc1` [Compound 16] was tested. Which IC50 did it give?
Answer: Its IC50 is over 10 µM.

Question: Which IC50 does the source give for `CNCCN(C)Cc1c[nH]nc1-c1ccc(Oc2ccccc2)cc1` [Compound 37] here?
Answer: The IC50 was 0.101 to 1 µM.

Question: How did the IC50 turn out when `CNCCN(C)Cc1c[nH]nc1-c1cccc(OC)c1` [Compound 24] was run?
Answer: The IC50 was over 10 µM.

Question: With `CNCCN(C)Cc1c[nH]nc1-c1ccc(OC)cc1` [Compound 25] as the molecule, how does the IC50 read?
Answer: Its IC50 is over 10 µM.

Question: `CNCCN(C)Cc1c[nH]nc1-c1cccc([N+](=O)[O-])c1` [Compound 21] was tested. Which IC50 did it give?
Answer: The IC50 was 1.01 to 3 µM.

Question: With `CNCCN(C)Cc1c[nH]nc1-c1ccccc1OC` [Compound 23] as the molecule, how does the IC50 read?
Answer: Its IC50 is over 10 µM.

Question: Which IC50 does the source give for `CNCCN(C)Cc1c[nH]nc1-c1ccc(C)cc1C` [Compound 29] here?
Answer: Its IC50 is over 10 µM.

Question: How did the IC50 turn out when `CNCCN(C)Cc1cnn(CCCC(O)CO)c1-c1ccc(F)cc1` (centres unmarked) [Compound 31] was run?
Answer: The IC50 was over 10 µM.

Question: With `CNCCN(C)Cc1cnn(C2CC2)c1-c1ccc(F)cc1` [Compound 14] as the molecule, how does the IC50 read?
Answer: The IC50 was over 10 µM.

Question: For `CNCCN(C)Cc1c[nH]nc1-c1cccc(O)c1` [Compound 26], which IC50 is on record?
Answer: The IC50 was over 10 µM.

Question: `CNCCN(C)Cc1c[nH]nc1-c1ccc(N)cc1` [Compound 33] was tested. Which IC50 did it give?
Answer: Its IC50 is 1.01 to 3 µM.

Question: For `CCCc1ccc(-c2n[nH]cc2CN(C)CCNC)cc1` [Compound 20], which IC50 is on record?
Answer: Its IC50 is 3.01 to 10 µM.

Question: How did the IC50 turn out when `CNCCN(C)Cc1c[nH]nc1-c1ccccc1OC(F)(F)F` [Compound 40] was run?
Answer: Its IC50 is over 10 µM.
